{
  "source": "ChEMBL document CHEMBL3046109",
  "about": "“A Method for Monitoring the Sensitivity of Botrytis cinerea to Mepanipyrim” (2004)",
  "type_in_all_cases": "functional",
  "key": {"Botrytis cinerea [1]": {"tested_on": "Botrytis cinerea", "assay": "Fungicidal activity against anilinopyrimidine-sensitive Botryotinia fuckeliana KU-01 isolated from grape plant assessed as inhibition of mycelial growth at 0.1 mg/l after 4 days", "settings": "KU-01, 96 h, read-out: GI"}, "Botrytis cinerea [2]": {"tested_on": "Botrytis cinerea", "assay": "Fungicidal activity against anilinopyrimidine-sensitive Botryotinia fuckeliana KU-01 infected in strawberry fruit assessed as inhibition of mycelial growth at 50 mg/l treated 2-3 hr before challenge measured after 5 days", "settings": "read-out: GI"}, "Botrytis cinerea [3]": {"tested_on": "Botrytis cinerea", "assay": "Fungicidal activity against anilinopyrimidine-resistant Botryotinia fuckeliana CH12.92 isolated from grape plant assessed as inhibition of mycelial growth at 30 mg/l after 4 days", "settings": "CH12.92, 96 h, read-out: GI"}, "Botrytis cinerea [4]": {"tested_on": "Botrytis cinerea", "assay": "Fungicidal activity against anilinopyrimidine-resistant Botryotinia fuckeliana CH164.94 infected in strawberry fruit assessed as inhibition of mycelial growth at 50 mg/l treated 2-3 hr before challenge measured after 5 days", "settings": "read-out: GI"}, "Botrytis cinerea [5]": {"tested_on": "Botrytis cinerea", "assay": "Fungicidal activity against anilinopyrimidine-resistant Botryotinia fuckeliana CH15.93 infected in strawberry fruit assessed as inhibition of mycelial growth at 50 mg/l treated 2-3 hr before challenge measured after 5 days", "settings": "read-out: GI"}, "Botrytis cinerea [6]": {"tested_on": "Botrytis cinerea", "assay": "Fungicidal activity against anilinopyrimidine-sensitive Botryotinia fuckeliana KU-59 infected in strawberry fruit assessed as inhibition of mycelial growth at 50 mg/l treated 2-3 hr before challenge measured after 5 days", "settings": "read-out: GI"}, "Botrytis cinerea [7]": {"tested_on": "Botrytis cinerea", "assay": "Fungicidal activity against anilinopyrimidine-sensitive Botryotinia fuckeliana KU-01 isolated from grape plant assessed as inhibition of mycelial growth at 100 mg/l after 4 days", "settings": "KU-01, 96 h, read-out: GI"}, "Botrytis cinerea [8]": {"tested_on": "Botrytis cinerea", "assay": "Fungicidal activity against anilinopyrimidine-sensitive Botryotinia fuckeliana KU-01 infected in strawberry fruit assessed as inhibition of mycelial growth at 100 mg/l treated 2-3 hr before challenge measured after 5 days", "settings": "read-out: GI"}, "Botrytis cinerea [9]": {"tested_on": "Botrytis cinerea", "assay": "Fungicidal activity against anilinopyrimidine-resistant Botryotinia fuckeliana CH12.92 isolated from grape plant assessed as inhibition of mycelial growth at 3 mg/l after 4 days", "settings": "CH12.92, 96 h, read-out: GI"}, "Botrytis cinerea [10]": {"tested_on": "Botrytis cinerea", "assay": "Fungicidal activity against anilinopyrimidine-sensitive Botryotinia fuckeliana KU-59 isolated from grape plant assessed as inhibition of mycelial growth at 30 mg/l after 4 days", "settings": "KU-59, 96 h, read-out: GI"}, "Botrytis cinerea [11]": {"tested_on": "Botrytis cinerea", "assay": "Fungicidal activity against anilinopyrimidine-sensitive Botryotinia fuckeliana KU-59 infected in strawberry fruit assessed as inhibition of mycelial growth at 100 mg/l treated 2-3 hr before challenge measured after 5 days", "settings": "read-out: GI"}, "Botrytis cinerea [12]": {"tested_on": "Botrytis cinerea", "assay": "Fungicidal activity against anilinopyrimidine-resistant Botryotinia fuckeliana CH15.93 isolated from grape plant assessed as inhibition of mycelial growth at 0.1 mg/l after 4 days", "settings": "CH15.93, 96 h, read-out: GI"}, "Botrytis cinerea [13]": {"tested_on": "Botrytis cinerea", "assay": "Fungicidal activity against anilinopyrimidine-resistant Botryotinia fuckeliana CH164.94 isolated from grape plant assessed as inhibition of mycelial growth at 30 mg/l after 4 days", "settings": "CH164.94, 96 h, read-out: GI"}, "Botrytis cinerea [14]": {"tested_on": "Botrytis cinerea", "assay": "Fungicidal activity against anilinopyrimidine-sensitive Botryotinia fuckeliana KU-59 infected in strawberry fruit assessed as inhibition of mycelial growth at 200 mg/l treated 2-3 hr before challenge measured after 5 days", "settings": "read-out: GI"}, "Botrytis cinerea [15]": {"tested_on": "Botrytis cinerea", "assay": "Fungicidal activity against anilinopyrimidine-resistant Botryotinia fuckeliana CH15.93 infected in strawberry fruit assessed as inhibition of mycelial growth at 200 mg/l treated 2-3 hr before challenge measured after 5 days", "settings": "read-out: GI"}, "Botrytis cinerea [16]": {"tested_on": "Botrytis cinerea", "assay": "Fungicidal activity against anilinopyrimidine-resistant Botryotinia fuckeliana CH12.92 infected in strawberry fruit assessed as inhibition of mycelial growth at 200 mg/l treated 2-3 hr before challenge measured after 5 days", "settings": "read-out: GI"}, "Botrytis cinerea [17]": {"tested_on": "Botrytis cinerea", "assay": "Fungicidal activity against anilinopyrimidine-sensitive Botryotinia fuckeliana KU-01 isolated from grape plant assessed as inhibition of mycelial growth at 10 mg/l after 4 days", "settings": "KU-01, 96 h, read-out: GI"}, "Botrytis cinerea [18]": {"tested_on": "Botrytis cinerea", "assay": "Fungicidal activity against anilinopyrimidine-resistant Botryotinia fuckeliana CH164.94 isolated from grape plant assessed as inhibition of mycelial growth at 0.3 mg/l after 4 days", "settings": "CH164.94, 96 h, read-out: GI"}, "Botrytis cinerea [19]": {"tested_on": "Botrytis cinerea", "assay": "Fungicidal activity against anilinopyrimidine-resistant Botryotinia fuckeliana CH15.93 isolated from grape plant assessed as inhibition of mycelial growth at 3 mg/l after 4 days", "settings": "CH15.93, 96 h, read-out: GI"}, "Botrytis cinerea [20]": {"tested_on": "Botrytis cinerea", "assay": "Fungicidal activity against anilinopyrimidine-resistant Botryotinia fuckeliana CH15.93 isolated from grape plant assessed as inhibition of mycelial growth at 0.3 mg/l after 4 days", "settings": "CH15.93, 96 h, read-out: GI"}, "Botrytis cinerea [21]": {"tested_on": "Botrytis cinerea", "assay": "Fungicidal activity against anilinopyrimidine-resistant Botryotinia fuckeliana CH15.93 isolated from grape plant assessed as inhibition of mycelial growth at 10 mg/l after 4 days", "settings": "CH15.93, 96 h, read-out: GI"}, "Botrytis cinerea [22]": {"tested_on": "Botrytis cinerea", "assay": "Fungicidal activity against anilinopyrimidine-sensitive Botryotinia fuckeliana KU-01 isolated from grape plant assessed as inhibition of mycelial growth at 3 mg/l after 4 days", "settings": "KU-01, 96 h, read-out: GI"}, "Botrytis cinerea [23]": {"tested_on": "Botrytis cinerea", "assay": "Fungicidal activity against anilinopyrimidine-resistant Botryotinia fuckeliana CH15.93 isolated from grape plant assessed as inhibition of mycelial growth at 30 mg/l after 4 days", "settings": "CH15.93, 96 h, read-out: GI"}, "Botrytis cinerea [24]": {"tested_on": "Botrytis cinerea", "assay": "Fungicidal activity against anilinopyrimidine-resistant Botryotinia fuckeliana CH12.92 isolated from grape plant assessed as inhibition of mycelial growth at 10 mg/l after 4 days", "settings": "CH12.92, 96 h, read-out: GI"}, "Botrytis cinerea [25]": {"tested_on": "Botrytis cinerea", "assay": "Fungicidal activity against anilinopyrimidine-sensitive Botryotinia fuckeliana KU-59 isolated from grape plant assessed as inhibition of mycelial growth at 3 mg/l after 4 days", "settings": "KU-59, 96 h, read-out: GI"}},
  "data": [
    {"molecule": "CC#Cc1cc(C)nc(Nc2ccccc2)n1", "note": "[MEPANIPYRIM]", "values": [
      {"measurement": "inhibition of growth at 0.1 µg/mL", "setting": "Botrytis cinerea [1]", "value": 75.5, "unit": "%"},
      {"measurement": "inhibition of growth at 50 µg/mL", "setting": "Botrytis cinerea [2]", "value": 100, "unit": "%"},
      {"measurement": "inhibition of growth at 30 µg/mL", "setting": "Botrytis cinerea [3]", "value": 63.2, "unit": "%"},
      {"measurement": "inhibition of growth at 50 µg/mL", "setting": "Botrytis cinerea [4]", "value": 0, "unit": "%"},
      {"measurement": "inhibition of growth at 50 µg/mL", "setting": "Botrytis cinerea [5]", "value": 0, "unit": "%"},
      {"measurement": "inhibition of growth at 50 µg/mL", "setting": "Botrytis cinerea [6]", "value": 100, "unit": "%"},
      {"measurement": "inhibition of growth at 100 µg/mL", "setting": "Botrytis cinerea [7]", "value": 100, "unit": "%"},
      {"measurement": "inhibition of growth at 100 µg/mL", "setting": "Botrytis cinerea [8]", "value": 100, "unit": "%"},
      {"measurement": "inhibition of growth at 3 µg/mL", "setting": "Botrytis cinerea [9]", "value": 60.1, "unit": "%"},
      {"measurement": "inhibition of growth at 30 µg/mL", "setting": "Botrytis cinerea [10]", "value": 100, "unit": "%"},
      {"measurement": "inhibition of growth at 100 µg/mL", "setting": "Botrytis cinerea [11]", "value": 100, "unit": "%"},
      {"measurement": "inhibition of growth at 0.1 µg/mL", "setting": "Botrytis cinerea [12]", "value": 0, "unit": "%"},
      {"measurement": "inhibition of growth at 30 µg/mL", "setting": "Botrytis cinerea [13]", "value": 66.2, "unit": "%"},
      {"measurement": "inhibition of growth at 200 µg/mL", "setting": "Botrytis cinerea [14]", "value": 100, "unit": "%"},
      {"measurement": "inhibition of growth at 200 µg/mL", "setting": "Botrytis cinerea [15]", "value": 0, "unit": "%"},
      {"measurement": "inhibition of growth at 200 µg/mL", "setting": "Botrytis cinerea [16]", "value": 0, "unit": "%"},
      {"measurement": "inhibition of growth at 10 µg/mL", "setting": "Botrytis cinerea [17]", "value": 100, "unit": "%"},
      {"measurement": "inhibition of growth at 0.3 µg/mL", "setting": "Botrytis cinerea [18]", "value": 0, "unit": "%"},
      {"measurement": "inhibition of growth at 3 µg/mL", "setting": "Botrytis cinerea [19]", "value": 65.7, "unit": "%"},
      {"measurement": "inhibition of growth at 0.3 µg/mL", "setting": "Botrytis cinerea [20]", "value": 0, "unit": "%"},
      {"measurement": "inhibition of growth at 10 µg/mL", "setting": "Botrytis cinerea [21]", "value": 72.6, "unit": "%"},
      {"measurement": "inhibition of growth at 3 µg/mL", "setting": "Botrytis cinerea [22]", "value": 100, "unit": "%"},
      {"measurement": "inhibition of growth at 30 µg/mL", "setting": "Botrytis cinerea [23]", "value": 74.1, "unit": "%"},
      {"measurement": "inhibition of growth at 10 µg/mL", "setting": "Botrytis cinerea [24]", "value": 65.7, "unit": "%"},
      {"measurement": "inhibition of growth at 3 µg/mL", "setting": "Botrytis cinerea [25]", "value": 100, "unit": "%"}
    ]}
  ]
}
